These results are taken from PubChem BioAssay (NCI).

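How tested: cells in 96-well plates exposed to compound for 48 hours at five concentrations. TGI denotes the concentration required for complete inhibition of growth.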 Bounds are passed on as bounds.

Some test systems named below: RPMI-8226 leukemia; SN12C renal; HL-60(TB) leukemia; SNB-75 CNS; 786-0 renal; EKVX NSCLC; UACC-62 melanoma; OVCAR-4 ovarian; SF-295 CNS; NCI-H226 lung; K-562 leukemia; SF-268 CNS; MDA-MB-231 breast.
Assay in all cases: NCI tumour cell line growth inhibition, 48 h

Take `NC1=C(NC(=O)Cc2ccc(F)cc2)C(=O)c2ccccc2C1=O`: the TGI in the experiment with RPMI-8226 leukemia was over 100 µM; in the experiment with SN12C renal, over 100 µM; in the experiment with HL-60(TB) leukemia, 98.6 µM; with SNB-75 CNS, 52.5 µM; in the experiment on 786-0 renal it was over 100 µM; in the experiment with EKVX NSCLC it was over 100 µM. Besides, the TGI was over 100 µM in the experiment with UACC-62 melanoma; over 100 µM in the experiment with OVCAR-4 ovarian; over 91.6 µM with SF-295 CNS; over 100 µM in the experiment on NCI-H226 lung; over 100 µM in the experiment on K-562 leukemia; over 100 µM with SF-268 CNS.

As to `O=C1NC2ON=C(c3ccccc3)C2C2ON=C(c3ccccc3)N12` (centres undefined), the TGI with SNB-75 CNS, with 786-0 renal, with MDA-MB-231 breast, with EKVX NSCLC, in the experiment on UACC-62 melanoma and in the experiment on SF-295 CNS was over 100 µM in each case. Moreover, the TGI in the experiment on NCI-H226 lung and in the experiment with SF-268 CNS was over 100 µM in each case.

Regarding `O=C(CSc1nnc(-c2ccc(N=Cc3ccc(Cl)cc3)cc2)o1)Nc1ccccc1[N+](=O)[O-]`, the TGI in the experiment on RPMI-8226 leukemia, in the experiment on SN12C renal, with HL-60(TB) leukemia, with SNB-75 CNS, with 786-0 renal and in the experiment on EKVX NSCLC was over 100 µM in each case. Besides, the TGI in the experiment with UACC-62 melanoma, with OVCAR-4 ovarian, in the experiment on SF-295 CNS, with NCI-H226 lung, in the experiment on K-562 leukemia and with SF-268 CNS was over 100 µM in each case.

With `O=C(c1cccs1)N(C(=S)N1CCN(c2ccccn2)CC1)c1ccccc1`, the TGI in the experiment on RPMI-8226 leukemia, in the experiment on SN12C renal, in the experiment with HL-60(TB) leukemia, with SNB-75 CNS, in the experiment on 786-0 renal and in the experiment with UACC-62 melanoma was over 100 µM throughout. Also, the TGI in the experiment on OVCAR-4 ovarian is over 100 µM; in the experiment on SF-295 CNS, over 100 µM; with NCI-H226 lung it was 84.4 µM; with K-562 leukemia, over 100 µM; with SF-268 CNS, over 100 µM.

As for `NC(=O)N/N=C(\CC1OC(=O)c2ccccc21)c1ccco1` (centres undefined), the TGI in the experiment on HL-60(TB) leukemia, with SNB-75 CNS, with 786-0 renal, with EKVX NSCLC, in the experiment with UACC-62 melanoma and in the experiment on OVCAR-4 ovarian was over 100 µM throughout. The TGI in the experiment with SF-295 CNS, in the experiment with NCI-H226 lung, in the experiment on K-562 leukemia and with SF-268 CNS was over 100 µM throughout.

Regarding `Cc1cc2ccccc2n2c1nc1ccccc12`, the TGI in the experiment on RPMI-8226 leukemia, in the experiment with SN12C renal, in the experiment with HL-60(TB) leukemia, with SNB-75 CNS, in the experiment on 786-0 renal and with EKVX NSCLC was over 100 µM each time. The TGI in the experiment with UACC-62 melanoma, in the experiment with SF-295 CNS, in the experiment with NCI-H226 lung, with K-562 leukemia and in the experiment on SF-268 CNS was over 100 µM in each case.

Regarding `C=Cc1ccc(C)[n+](C[Si](C)(C)O[Si](C)(C)C)c1`, the TGI in the experiment on RPMI-8226 leukemia, in the experiment on SN12C renal, in the experiment on SNB-75 CNS, in the experiment with 786-0 renal, in the experiment on EKVX NSCLC and in the experiment on UACC-62 melanoma was over 100 µM each time. In addition, the TGI in the experiment on OVCAR-4 ovarian, in the experiment with SF-295 CNS, in the experiment with NCI-H226 lung, with K-562 leukemia and with SF-268 CNS was over 100 µM in each case.

On to `C/C(=N\NS(=O)(=O)c1ccc(C)cc1)C(CN1CCCCC1)C(c1ccccc1)c1c(O)c2ccccc2oc1=O` (centres undefined), for which the TGI in the experiment with RPMI-8226 leukemia, in the experiment with SN12C renal, with HL-60(TB) leukemia, in the experiment with SNB-75 CNS, with 786-0 renal and in the experiment on EKVX NSCLC was over 100 µM throughout. Besides, the TGI in the experiment with UACC-62 melanoma, in the experiment with OVCAR-4 ovarian, with SF-295 CNS, in the experiment on NCI-H226 lung, in the experiment with K-562 leukemia and in the experiment with SF-268 CNS was over 100 µM throughout.

As for `CNS(=O)(=O)NN(C)S(=O)(=O)c1ccccc1`, the TGI in the experiment on RPMI-8226 leukemia, in the experiment on SN12C renal, in the experiment with HL-60(TB) leukemia, with SNB-75 CNS, with 786-0 renal and with EKVX NSCLC was over 100 µM throughout. The TGI with UACC-62 melanoma, with OVCAR-4 ovarian, in the experiment on SF-295 CNS, in the experiment on NCI-H226 lung, in the experiment on K-562 leukemia and in the experiment with SF-268 CNS was over 100 µM in each case.

With `COc1cc2c(oc(=O)c3c4oc([Si](C)(C)C)cc4cc(OC)c23)c2cccc(OCc3ccccc3)c12`, the TGI is over 87 µM in the experiment with RPMI-8226 leukemia; over 100 µM in the experiment on SN12C renal; over 92 µM in the experiment with HL-60(TB) leukemia; 48 µM with SNB-75 CNS; 34.8 µM in the experiment on 786-0 renal; over 100 µM in the experiment on EKVX NSCLC. Further, the TGI with UACC-62 melanoma was 37.6 µM; with OVCAR-4 ovarian, over 88.5 µM; in the experiment with SF-295 CNS, 50.9 µM; in the experiment with NCI-H226 lung it was over 94.4 µM; in the experiment on K-562 leukemia it was over 100 µM; in the experiment on SF-268 CNS, over 70.7 µM.

As to `CC(=O)OCC1=C(CCC#N)N2C(=O)C(NC(=O)Cc3cccs3)C2S(=O)C1` (centres undefined), the TGI in the experiment with RPMI-8226 leukemia, with SN12C renal, with HL-60(TB) leukemia, with SNB-75 CNS, with 786-0 renal and with EKVX NSCLC was over 100 µM in each case. For the same compound, the TGI in the experiment on UACC-62 melanoma, in the experiment on OVCAR-4 ovarian, with SF-295 CNS, in the experiment on NCI-H226 lung, in the experiment on K-562 leukemia and in the experiment with SF-268 CNS was over 100 µM throughout.

For `O=c1[nH]c2cc(Cl)ccc2nc1/C(=N\O)C(O)c1cccc([N+](=O)[O-])c1` (centres undefined), the TGI in the experiment with RPMI-8226 leukemia, with SN12C renal, in the experiment with HL-60(TB) leukemia, in the experiment on SNB-75 CNS, with 786-0 renal and in the experiment on EKVX NSCLC was over 100 µM each time. For the same compound, the TGI in the experiment on UACC-62 melanoma, in the experiment on OVCAR-4 ovarian, in the experiment with SF-295 CNS, in the experiment with NCI-H226 lung and in the experiment with K-562 leukemia was over 100 µM each time.
